Source: PubChem BioAssay AID1745844 (Carcinogenic Potency Database (CPDB), 2022)
The source made the active and inactive calls. No rule for the calls is given here.

System: rodent lifetime carcinogenesis bioassay, tumor incidence TD50
Experiment: chronic cancer bioassays in animals – CPDB, compiled studies (AID 1745844)

## CC(O)CNCC(C)O (stereo unspecified)
rat, strain Wistar, males, in feed, site: liver, lesion: hepatocellular carcinoma, dosed 94 weeks, study length 94 weeks
  carcinogen call: negative (inactive)
rat, strain Wistar, males, in feed, site: lung, lesion: one or several types, types not named, dosed 94 weeks, study length 94 weeks
  carcinogen call: negative (inactive)
rat, strain Wistar, males, in feed, site: nasal cavity, lesion: one or several types, types not named, dosed 94 weeks, study length 94 weeks
  carcinogen call: negative (inactive)

## CC(=O)NNC(=O)c1ccncc1
mouse, strain Swiss albino, females, in drinking water, site: liver, lesion: several types, types named in the paper, dosed 94 weeks, study length 94 weeks
  TD50: 55700 mg/kg/day
mouse, strain Swiss albino, females, in drinking water, site: lung, lesion: several types, types named in the paper, dosed 94 weeks, study length 94 weeks
  TD50: 319 mg/kg/day
mouse, strain Swiss albino, males, in drinking water, site: liver, lesion: hemangioma, dosed 92 weeks, study length 92 weeks
  carcinogen call: negative (inactive)
mouse, strain Swiss albino, males, in drinking water, site: lung, lesion: several types, types named in the paper, dosed 92 weeks, study length 92 weeks
  TD50: 342 mg/kg/day

## OC[C@H]1O[C@H](O[C@]2(CCl)O[C@H](CCl)[C@@H](O)[C@@H]2O)[C@H](O)[C@@H](O)[C@H]1Cl
mouse, strain Charles River CD1, females, in feed, site: any site (literature study), lesion: several types, types named in the paper, dosed 104 weeks, study length 104 weeks
  carcinogen call: negative (inactive)
mouse, strain Charles River CD1, females, in feed, site: liver, lesion: hepatocellular adenoma, dosed 104 weeks, study length 104 weeks
  carcinogen call: negative (inactive)
mouse, strain Charles River CD1, females, in feed, site: liver, lesion: hepatocellular carcinoma, dosed 104 weeks, study length 104 weeks
  TD50: 98200 mg/kg/day (inactive)
mouse, strain Charles River CD1, females, in feed, site: lung, lesion: adenoma, dosed 104 weeks, study length 104 weeks
  carcinogen call: negative (inactive)
mouse, strain Charles River CD1, females, in feed, site: lung, lesion: carcinoma, dosed 104 weeks, study length 104 weeks
  carcinogen call: negative (inactive)
mouse, strain Charles River CD1, males, in feed, site: any site (literature study), lesion: several types, types named in the paper, dosed 104 weeks, study length 104 weeks
  carcinogen call: negative (inactive)
mouse, strain Charles River CD1, males, in feed, site: liver, lesion: hepatocellular adenoma, dosed 104 weeks, study length 104 weeks
  carcinogen call: negative (inactive)
mouse, strain Charles River CD1, males, in feed, site: liver, lesion: hepatocellular carcinoma, dosed 104 weeks, study length 104 weeks
  carcinogen call: negative (inactive)
mouse, strain Charles River CD1, males, in feed, site: lung, lesion: adenoma, dosed 104 weeks, study length 104 weeks
  TD50: 35100 mg/kg/day (inactive)
mouse, strain Charles River CD1, males, in feed, site: lung, lesion: carcinoma, dosed 104 weeks, study length 104 weeks
  carcinogen call: negative (inactive)

## COCCl
hamster, strain Syrian Golden, males, inhaled, site: lung, lesion: adenocarcinoma, dosed 113 weeks, study length 124 weeks
  TD50: 32.9 mg/kg/day
hamster, strain Syrian Golden, males, inhaled, site: several sites, sites named in the paper, lesion: several types, types named in the paper, dosed 113 weeks, study length 124 weeks
  TD50: 16.4 mg/kg/day
rat, strain Sprague-Dawley, males, inhaled, site: several sites, sites named in the paper, lesion: several types, types named in the paper, dosed 113 weeks, study length 122 weeks
  TD50: 5.5 mg/kg/day

## O=C1OC(CN2CCOCC2)CN1/N=C/c1ccc([N+](=O)[O-])o1 (stereo unspecified)
rat, strain Sprague-Dawley, females, in feed, site: all sites, lesion: lymphoblastic lymphoma, dosed 46 weeks, study length 66 weeks
  TD50: 39 mg/kg/day
rat, strain Sprague-Dawley, females, in feed, site: any site (literature study), lesion: several types, types named in the paper, dosed 46 weeks, study length 66 weeks
  TD50: 2.81 mg/kg/day
rat, strain Sprague-Dawley, females, in feed, site: kidney/pelvis, lesion: transitional-cell carcinoma, dosed 46 weeks, study length 66 weeks
  TD50: 149 mg/kg/day
rat, strain Sprague-Dawley, females, in feed, site: mammary gland, lesion: adenocarcinoma, dosed 46 weeks, study length 66 weeks
  TD50: 6.33 mg/kg/day
rat, strain Sprague-Dawley, females, in feed, site: mammary gland, lesion: several types, types named in the paper, dosed 46 weeks, study length 66 weeks
  TD50: 2.81 mg/kg/day

## CC1CC(C)(C)CC(OOC(C)(C)C)(OOC(C)(C)C)C1 (stereo unspecified)
mouse, strain B6C3F1, females, in feed, site: any site (literature study), lesion: malignant tumor, dosed 78 weeks, study length 83 weeks
  TD50: 9310 mg/kg/day (inactive)
mouse, strain B6C3F1, females, in feed, site: any site (literature study), lesion: one or several types, types not named, dosed 78 weeks, study length 83 weeks
  TD50: 4230 mg/kg/day (inactive)
mouse, strain B6C3F1, females, in feed, site: liver, lesion: one or several types, types not named, dosed 78 weeks, study length 83 weeks
  carcinogen call: negative (inactive)
mouse, strain B6C3F1, females, in feed, site: lung, lesion: alveolar/bronchiolar adenoma, dosed 78 weeks, study length 83 weeks
  carcinogen call: negative (inactive)
mouse, strain B6C3F1, females, in feed, site: lung, lesion: alveolar/bronchiolar carcinoma, dosed 78 weeks, study length 83 weeks
  TD50: 19900 mg/kg/day (inactive)
mouse, strain B6C3F1, males, in feed, site: any site (literature study), lesion: malignant tumor, dosed 78 weeks, study length 83 weeks
  carcinogen call: negative (inactive)
mouse, strain B6C3F1, males, in feed, site: any site (literature study), lesion: one or several types, types not named, dosed 78 weeks, study length 83 weeks
  TD50: 4980 mg/kg/day (inactive)
mouse, strain B6C3F1, males, in feed, site: liver, lesion: hepatocellular adenoma, dosed 78 weeks, study length 83 weeks
  TD50: 1490 mg/kg/day (inactive)
mouse, strain B6C3F1, males, in feed, site: liver, lesion: hepatocellular carcinoma, dosed 78 weeks, study length 83 weeks
  carcinogen call: negative (inactive)
mouse, strain B6C3F1, males, in feed, site: lung, lesion: alveolar/bronchiolar adenoma, dosed 78 weeks, study length 83 weeks
  TD50: 7.6e+09 mg/kg/day (inactive)
mouse, strain B6C3F1, males, in feed, site: lung, lesion: alveolar/bronchiolar carcinoma, dosed 78 weeks, study length 83 weeks
  carcinogen call: negative (inactive)
